# Data taken from publication PMC5218480 (PLoS ONE, 2017).
# Tested on: MV-4-11 cells
# Test: Gene expression microarray analysis (Affymetrix PrimeView) and GSEA
# Type: cell-based, human
# Set-up: RFU PODN (11730768_x_at) / Fold change /veh PODN (11730768_x_at) / RFU LINC00158 (11744669_a_at) / Fold change /veh LINC00158 (11744669_a_at) / RFU DUSP10 (11751237_a_at) / Fold change /veh DUSP10 (11751237_a_at) / RFU ID3 (11757404_x_at) / Fold change /veh ID3 (11757404_x_at) / RFU PLEKHG5 (11737974_s_at) / Fold change /veh PLEKHG5 (11737974_s_at) / RFU LRRC4B (11730491_at) / Fold change /veh LRRC4B (11730491_at) / RFU GIMAP4 (11747438_a_at) / Fold change /veh GIMAP4 (11747438_a_at) / RFU KRT8 (11758183_x_at) / Fold change /veh KRT8 (11758183_x_at) / RFU CNN1 (11734310_a_at) / Fold change /veh CNN1 (11734310_a_at) / RFU VPS37D (11726825_at) / Fold change /veh VPS37D (11726825_at) / RFU C10orf10 (11716522_x_at) / Fold change /veh C10orf10 (11716522_x_at) / RFU KIR2DL2 /// KIR2DL4 /// KIR2DL5A /// KIR2DL5B /// KIR2DS1 /// KIR2DS2 /// KIR2DS3 /// KIR2DS4 /// KIR3DL3 /// KIR3DL3 /// KIR3DS1 (11738374_at) / Fold change /veh KIR2DL2 /// KIR2DL4 /// KIR2DL5A /// KIR2DL5B /// KIR2DS1 /// KIR2DS2 /// KIR2DS3 /// KIR2DS4 /// KIR3DL3 /// KIR3DL3 /// KIR3DS1 (11738374_at) / RFU C1QL1 (11718748_at) / Fold change /veh C1QL1 (11718748_at) / RFU TMPRSS4 (11747572_a_at) / Fold change /veh TMPRSS4 (11747572_a_at) / RFU HAMP (11756126_x_at) / Fold change /veh HAMP (11756126_x_at) / RFU RNFT2 (11725882_a_at) / Fold change /veh RNFT2 (11725882_a_at) / RFU NR4A2 (11747474_a_at) / Fold change /veh NR4A2 (11747474_a_at) / RFU ABCC12 (11746883_a_at) / Fold change /veh ABCC12 (11746883_a_at) / RFU TMEM136 (11760407_x_at) / Fold change /veh TMEM136 (11760407_x_at) / RFU CLDN22 /// WWC2 (11732394_at) / Fold change /veh CLDN22 /// WWC2 (11732394_at) / RFU HLA-DPB1 (11760878_x_at) / Fold change /veh HLA-DPB1 (11760878_x_at) / RFU SPINT1 (11716480_a_at) / Fold change /veh SPINT1 (11716480_a_at) / RFU GAP43 (11754022_s_at) / Fold change /veh GAP43 (11754022_s_at) / RFU A4GNT (11735810_at) / Fold change /veh A4GNT (11735810_at) / RFU PRB3 (11715151_x_at) / Fold change /veh PRB3 (11715151_x_at) / RFU TUBB4B (11761932_at) / Fold change /veh TUBB4B (11761932_at) / RFU CAPN14 (11732068_a_at) / Fold change /veh CAPN14 (11732068_a_at) / RFU TMCC2 (11721928_a_at) / Fold change /veh TMCC2 (11721928_a_at) / RFU IRGQ (11745062_a_at) / Fold change /veh IRGQ (11745062_a_at) / RFU FAM174B (11720279_a_at) / Fold change /veh FAM174B (11720279_a_at) / RFU TMPRSS4 (11748680_a_at) / Fold change /veh TMPRSS4 (11748680_a_at) / RFU FAM212B (11763350_a_at) / Fold change /veh FAM212B (11763350_a_at) / RFU PLEKHG5 (11743358_a_at) / Fold change /veh PLEKHG5 (11743358_a_at) / RFU ZSCAN30 (11745921_a_at) / Fold change /veh ZSCAN30 (11745921_a_at) / RFU CMKLR1 (11741424_a_at) / Fold change /veh CMKLR1 (11741424_a_at) / RFU LOC101060620 /// MAPK8IP1 (11723275_at) / Fold change /veh LOC101060620 /// MAPK8IP1 (11723275_at) / RFU SPTSSB (11747773_x_at) / Fold change /veh SPTSSB (11747773_x_at) / RFU PRSS12 (11739890_at) / Fold change /veh PRSS12 (11739890_at) / RFU BIN1 (11741810_x_at) / Fold change /veh BIN1 (11741810_x_at) / RFU WNT11 (11732464_a_at) / Fold change /veh WNT11 (11732464_a_at) / RFU C10orf10 (11716521_a_at) / Fold change /veh C10orf10 (11716521_a_at) / RFU C5orf56 (11738089_at) / Fold change /veh C5orf56 (11738089_at) / RFU CYB561 (11721691_x_at) / Fold change /veh CYB561 (11721691_x_at) / RFU ANKRD19P (11752326_a_at) / Fold change /veh ANKRD19P (11752326_a_at) / RFU OR2T12 /// OR2T33 /// OR2T8 (11738714_s_at) / Fold change /veh OR2T12 /// OR2T33 /// OR2T8 (11738714_s_at) / RFU VCAN (11748164_a_at) / Fold change /veh VCAN (11748164_a_at) / RFU JSRP1 (11732532_at) / Fold change /veh JSRP1 (11732532_at) / RFU KRTAP10-11 (11738290_x_at) / Fold change /veh KRTAP10-11 (11738290_x_at) / RFU MYO3A (11730013_a_at) / Fold change /veh MYO3A (11730013_a_at) / RFU EBF3 (11725865_a_at) / Fold change /veh EBF3 (11725865_a_at) / RFU CAMK2N1 (11719241_x_at) / Fold change /veh CAMK2N1 (11719241_x_at) / RFU C5orf56 (11738088_a_at) / Fold change /veh C5orf56 (11738088_a_at) / RFU OLFML3 (11715873_a_at) / Fold change /veh OLFML3 (11715873_a_at) / RFU LOC100653217 /// NTM (11731650_a_at) / Fold change /veh LOC100653217 /// NTM (11731650_a_at) / RFU MAPK11 (11762145_a_at) / Fold change /veh MAPK11 (11762145_a_at) / RFU FIZ1 (11724087_x_at) / Fold change /veh FIZ1 (11724087_x_at) / RFU OASL (11726364_x_at) / Fold change /veh OASL (11726364_x_at) / RFU SOX15 (11748057_x_at) / Fold change /veh SOX15 (11748057_x_at) / RFU CD79A (11719716_a_at) / Fold change /veh CD79A (11719716_a_at) / RFU HIST1H1D (11736915_at) / Fold change /veh HIST1H1D (11736915_at) / RFU CASKIN2 (11723855_a_at) / Fold change /veh CASKIN2 (11723855_a_at) / RFU LOC730098 (11760151_x_at) / Fold change /veh LOC730098 (11760151_x_at) / RFU OR4N2 (11742367_at) / Fold change /veh OR4N2 (11742367_at) / RFU PRRT2 (11749266_a_at) / Fold change /veh PRRT2 (11749266_a_at) / RFU SNX32 (11753110_a_at) / Fold change /veh SNX32 (11753110_a_at) / RFU CDHR5 (11726645_a_at) / Fold change /veh CDHR5 (11726645_a_at) / RFU RCAN1 (11760418_a_at) / Fold change /veh RCAN1 (11760418_a_at) / RFU FAM167A (11723789_a_at) / Fold change /veh FAM167A (11723789_a_at) / RFU FAM26E (11764081_at) / Fold change /veh FAM26E (11764081_at) / RFU ISYNA1 (11749810_s_at) / Fold change /veh ISYNA1 (11749810_s_at) / RFU ACY1 (11761880_at) / Fold change /veh ACY1 (11761880_at) / RFU 11764098_at / Fold change /veh 11764098_at / RFU SAMD14 (11745864_x_at) / Fold change /veh SAMD14 (11745864_x_at) / RFU NPB (11741838_a_at) / Fold change /veh NPB (11741838_a_at) / RFU TMPRSS6 (11731388_a_at) / Fold change /veh TMPRSS6 (11731388_a_at) / RFU KRTAP10-2 (11738614_at) / Fold change /veh KRTAP10-2 (11738614_at) / RFU ARHGAP8 /// PRR5-ARHGAP8 (11727945_x_at) / Fold change /veh ARHGAP8 /// PRR5-ARHGAP8 (11727945_x_at) / RFU KRTAP5-7 /// NADSYN1 (11734609_at) / Fold change /veh KRTAP5-7 /// NADSYN1 (11734609_at) / RFU RASL12 (11751679_a_at) / Fold change /veh RASL12 (11751679_a_at) / RFU CDKN2B (11736163_a_at) / Fold change /veh CDKN2B (11736163_a_at) / RFU PRF1 (11729649_at) / Fold change /veh PRF1 (11729649_at) / RFU, ZNF638 /// ZNF638-IT1 / Fold change vs veh, ZNF638 /// ZNF638-IT1 / RFU, PANK3 / Fold change vs veh, PANK3 / RFU, SH3YL1 / Fold change vs veh, SH3YL1 / RFU, ZEB2 / Fold change vs veh, ZEB2 / RFU, NRIP1 / Fold change vs veh, NRIP1 / RFU, PTTG1IP / Fold change vs veh, PTTG1IP / RFU, CAPN2 / Fold change vs veh, CAPN2 / RFU, MED14 / Fold change vs veh, MED14 / RFU, SNORA58 / Fold change vs veh, SNORA58 / RFU, C1orf63 / Fold change vs veh, C1orf63 / RFU, LRRFIP1 / Fold change vs veh, LRRFIP1 / RFU, NDUFAF7 / Fold change vs veh, NDUFAF7 / RFU, SLC12A2 / Fold change vs veh, SLC12A2 / RFU, IBTK / Fold change vs veh, IBTK / RFU, ESF1 / Fold change vs veh, ESF1 / Fold change vs veh, TMEM50B / RFU, TAOK1 / Fold change vs veh, TAOK1 / RFU, ACBD3 / Fold change vs veh, ACBD3 / RFU, TMA16 / Fold change vs veh, TMA16 / RFU, RWDD3 / Fold change vs veh, RWDD3 / RFU, BCAT1 / Fold change vs veh, BCAT1 / RFU, EDEM3 / Fold change vs veh, EDEM3 / RFU, TMEM33 / Fold change vs veh, TMEM33 / RFU, WDR75 / Fold change vs veh, WDR75 / RFU, AHCTF1 / Fold change vs veh, AHCTF1 / RFU, TFRC / Fold change vs veh, TFRC / RFU, ZDHHC17 / Fold change vs veh, ZDHHC17 / RFU, NOM1 / Fold change vs veh, NOM1 / RFU, ARL8B / Fold change vs veh, ARL8B / RFU, ZBTB11 / Fold change vs veh, ZBTB11 / RFU, TAMM41 / Fold change vs veh, TAMM41 / RFU, KIAA1704 /// LOC100996395 / Fold change vs veh, KIAA1704 /// LOC100996395 / RFU, ING1 / Fold change vs veh, ING1 / RFU, TRMT61B / Fold change vs veh, TRMT61B / RFU, FUBP3 / Fold change vs veh, FUBP3 / RFU, TP53 / Fold change vs veh, TP53 / RFU, TNKS2 / Fold change vs veh, TNKS2 / RFU, ZFP14 / Fold change vs veh, ZFP14 / RFU, ACTR2 / Fold change vs veh, ACTR2 / RFU, PPP3R1 / Fold change vs veh, PPP3R1 / RFU, PIK3R1 / Fold change vs veh, PIK3R1 / RFU, HNRNPA1 / Fold change vs veh, HNRNPA1 / RFU, RNF170 / Fold change vs veh, RNF170 / RFU, ZNF28 / Fold change vs veh, ZNF28 / RFU, RNGTT / Fold change vs veh, RNGTT / RFU, OGT / Fold change vs veh, OGT / RFU, BRD1 / Fold change vs veh, BRD1 / RFU, MARS / Fold change vs veh, MARS / RFU, ZNF655 / Fold change vs veh, ZNF655 / RFU, FAHD1 / Fold change vs veh, FAHD1 / RFU, BDP1 / Fold change vs veh, BDP1 / RFU, LRRCC1 / Fold change vs veh, LRRCC1 / RFU, ARID1A / Fold change vs veh, ARID1A / RFU, ZNF146 / Fold change vs veh, ZNF146 / RFU, ZNF330 / Fold change vs veh, ZNF330 / RFU, GPN3 / Fold change vs veh, GPN3 / RFU, C9orf123 / Fold change vs veh, C9orf123 / RFU, N4BP2L2 / Fold change vs veh, N4BP2L2 / RFU, ARFIP1 / Fold change vs veh, ARFIP1 / RFU, FAM179B / Fold change vs veh, FAM179B / RFU, BCL10 / Fold change vs veh, BCL10 / RFU, UHRF1BP1L / Fold change vs veh, UHRF1BP1L / RFU, BET1 / Fold change vs veh, BET1 / RFU, CNOT2 / Fold change vs veh, CNOT2 / RFU, ZNF268 / Fold change vs veh, ZNF268 / Fold change vs veh, ZNF507 / RFU, DGCR2 / Fold change vs veh, DGCR2 / RFU, WDSUB1 / Fold change vs veh, WDSUB1 / Fold change vs veh, HSP90B1 /// MIR3652 / RFU, ADSS / Fold change vs veh, ADSS / RFU, GK / Fold change vs veh, GK / RFU, ZNF148 / Fold change vs veh, ZNF148 / RFU, TAF9 / Fold change vs veh, TAF9 / RFU, SLC1A5 / Fold change vs veh, SLC1A5 / RFU, SLMO2 / Fold change vs veh, SLMO2 / RFU, ABCC4 / Fold change vs veh, ABCC4 / RFU, LOC101060439 /// RAP1B / Fold change vs veh, LOC101060439 /// RAP1B / RFU, RFX7 / Fold change vs veh, RFX7 / RFU, GTPBP10 / Fold change vs veh, GTPBP10 / RFU, CNEP1R1 / Fold change vs veh, CNEP1R1 / RFU, BIVM-ERCC5 /// ERCC5 / Fold change vs veh, BIVM-ERCC5 /// ERCC5 / RFU, ILF3 / Fold change vs veh, ILF3 / RFU 11762660_at / Fold change /veh 11762660_at / RFU VCAN (11757783_s_at) / Fold change /veh VCAN (11757783_s_at) / RFU DDX43 (11728927_at) / Fold change /veh DDX43 (11728927_at) / RFU KRT8 (11758188_x_at) / Fold change /veh KRT8 (11758188_x_at) / RFU NKD1 (11759106_at) / Fold change /veh NKD1 (11759106_at) / RFU SRD5A1 (11742802_a_at) / Fold change /veh SRD5A1 (11742802_a_at) / RFU TPSAB1 /// TPSB2 (11721975_s_at) / Fold change /veh TPSAB1 /// TPSB2 (11721975_s_at) / RFU GSTM3 (11746129_a_at) / Fold change /veh GSTM3 (11746129_a_at) / RFU IL23R (11737362_x_at) / Fold change /veh IL23R (11737362_x_at) / RFU TMEM51 (11727254_a_at) / Fold change /veh TMEM51 (11727254_a_at) / RFU PIWIL2 (11732686_x_at) / Fold change /veh PIWIL2 (11732686_x_at) / RFU ORM1 (11744905_x_at) / Fold change /veh ORM1 (11744905_x_at) / RFU CCDC152 (11743942_at) / Fold change /veh CCDC152 (11743942_at) / RFU ECM1 (11717891_a_at) / Fold change /veh ECM1 (11717891_a_at) / RFU IL23R (11748794_a_at) / Fold change /veh IL23R (11748794_a_at) / RFU TNFAIP8L3 (11732012_x_at) / Fold change /veh TNFAIP8L3 (11732012_x_at) / RFU MBOAT4 (11741988_at) / Fold change /veh MBOAT4 (11741988_at) / RFU 11764193_at / Fold change /veh 11764193_at / RFU TMEM53 (11763286_at) / Fold change /veh TMEM53 (11763286_at) / RFU MAGEB2 (11727129_at) / Fold change /veh MAGEB2 (11727129_at) / RFU TMEM200A (11744735_a_at) / Fold change /veh TMEM200A (11744735_a_at) / RFU CCDC152 (11751479_a_at) / Fold change /veh CCDC152 (11751479_a_at) / RFU FAM211A (11726209_a_at) / Fold change /veh FAM211A (11726209_a_at) / RFU RGS16 (11746705_a_at) / Fold change /veh RGS16 (11746705_a_at) / RFU VCAN (11755009_s_at) / Fold change /veh VCAN (11755009_s_at) / RFU RHOB (11743442_s_at) / Fold change /veh RHOB (11743442_s_at) / RFU RGS16 (11720943_a_at) / Fold change /veh RGS16 (11720943_a_at) / RFU RGS16 (11720944_at) / Fold change /veh RGS16 (11720944_at) / RFU, VPS4B / Fold change vs veh, VPS4B / RFU, CREB1 / Fold change vs veh, CREB1 / RFU, DNAJC13 / Fold change vs veh, DNAJC13 / RFU, GNAQ / Fold change vs veh, GNAQ / RFU, CDK5R1 / Fold change vs veh, CDK5R1 / RFU, ZRANB3 / Fold change vs veh, ZRANB3 / RFU, CUL4A / Fold change vs veh, CUL4A / RFU, CCNY / Fold change vs veh, CCNY / RFU, UFL1 / Fold change vs veh, UFL1 / RFU, COG3 / Fold change vs veh, COG3 / RFU, DIAPH2 / Fold change vs veh, DIAPH2 / RFU, SKA2 / Fold change vs veh, SKA2 / RFU, AFF3 / Fold change vs veh, AFF3 / RFU, LMF1 / Fold change vs veh, LMF1 / RFU, IPO11 / Fold change vs veh, IPO11 / RFU, DFFB / Fold change vs veh, DFFB / RFU, FOXP1 / Fold change vs veh, FOXP1 / RFU, CARD8 / Fold change vs veh, CARD8 / RFU, STRN3 / Fold change vs veh, STRN3 / RFU, ADK / Fold change vs veh, ADK / RFU, RASSF2 / Fold change vs veh, RASSF2 / RFU, WIPF1 / Fold change vs veh, WIPF1 / RFU, LARP1B / Fold change vs veh, LARP1B / RFU, RASA1 / Fold change vs veh, RASA1 / RFU, RB1 / Fold change vs veh, RB1 / RFU, PPFIA1 / Fold change vs veh, PPFIA1 / RFU, MAT2A / Fold change vs veh, MAT2A / RFU, CCT5 / Fold change vs veh, CCT5 / RFU, WDR92 / Fold change vs veh, WDR92 / RFU, CUX1 / Fold change vs veh, CUX1 / RFU, TTC7A / Fold change vs veh, TTC7A / RFU, TMEM135 / Fold change vs veh, TMEM135 / RFU, DEPTOR / Fold change vs veh, DEPTOR / RFU, CPM / Fold change vs veh, CPM / RFU, DNAJB6 / Fold change vs veh, DNAJB6 / RFU, CACNA2D3 / Fold change vs veh, CACNA2D3 / RFU, DTX4 / Fold change vs veh, DTX4 / RFU, TFCP2 / Fold change vs veh, TFCP2 / RFU, GMCL1 /// GMCL1P1 / Fold change vs veh, GMCL1 /// GMCL1P1 / RFU, AEBP2 / Fold change vs veh, AEBP2 / RFU, SNHG1 /// SNORD22 /// SNORD25 /// SNORD26 /// SNORD27 /// SNORD28 /// SNORD29 /// SNORD31 / Fold change vs veh, SNHG1 /// SNORD22 /// SNORD25 /// SNORD26 /// SNORD27 /// SNORD28 /// SNORD29 /// SNORD31 / Fold change (Aza/veh), C12orf56 (ProbeSet 11735607_a_at) / Fold change (ACY-1035/veh), C12orf56 (ProbeSet 11735607_a_at) / Fold change (Aza/veh), FGFR1OP (ProbeSet 11751329_s_at) / Fold change (ACY-1035/veh), FGFR1OP (ProbeSet 11751329_s_at) / Fold change (Aza/veh), VPS36 (ProbeSet 11739960_a_at) / Fold change (ACY-1035/veh), VPS36 (ProbeSet 11739960_a_at) / RFU SYPL1 (11715823_x_at) / Fold change /veh SYPL1 (11715823_x_at) / RFU IGFBP7 (11715501_s_at) / Fold change /veh IGFBP7 (11715501_s_at) / RFU REEP3 (11722064_at) / Fold change /veh REEP3 (11722064_at) / RFU IGLL1 (11728026_x_at) / Fold change /veh IGLL1 (11728026_x_at): dose or concentration left out as unconfirmed
# Conditions: MV-4-11 cells, 48 hours
structure (smiles),measurement,value
Nc1ncn([C@@H]2O[C@H](CO)[C@@H](O)[C@H]2O)c(=O)n1 [azacitidine],Fold change /veh TMEM200A (11744735_a_at),1.56
